Assay results as given in patent US6365632B1, “Treatment of orthostatic hypotension” (Knoll Pharmaceuticals Company, priority 1999, dated 2002).

What was measured:
[1] = biological target: [3H] Noradenaline reuptake in rat brain tissue; experiment: in vitro [3H]noradrenaline reuptake inhibition in rat brain tissue; format: biochemical; settings: means of ≧3 separate determinations
[2] = biological target: [3H] Dopamine reuptake in rat brain tissue; experiment: in vitro [3H]dopamine reuptake inhibition in rat brain tissue; format: biochemical; settings: means of ≧3 separate determinations

SMILES | Ki [1] | Ki [2]
CC(NC(C)(C)C)C(=O)c1cccc(Cl)c1 (stereo not shown) [Bupropion] | 2590 nM | 409 nM
COc1ccc(C(CN(C)C)C2(O)CCCCC2)cc1 (stereo not shown) [Venlafaxine] | 196 nM | 2590 nM
